Experimental data reported in patent US20050031652A1, “Compositions and methods comprising memantine and polyanionic polymers” (priority 2003, published 2005).
Structures can show the parent of a compound that is named as a salt.

Columns and labels:
[1] = assumed for the calculation; cited from earlier work
[2] = Retina levels after topical versus oral dosing over seven days (Example 9); settings: albino, rabbit, in vivo, 1.76 mg/kg/day
Experimental: Once a day topical dosing of 0.37% memantine HCl (w/v) borate buffered solution (0.242 mg/kg/day), was compared to daily oral dosing of memantine HCL, 1.76 mg/kg/day, in albino rabbits over seven days. […] Peak levels obtained by topical dosing far exceeded levels thought to be possible by oral dosing. […] Thus, topical dosing of this formulation is […].

[3] = Human oral clinical pharmacokinetic study; type: in vivo
Experimental: Assuming a 31% protein binding and a retina-choroid concentration equivalent to the free-unbound plasma memantine concentration, the peak retinal level of memantine would be 0.30 μM.

[4] = Autoradiography after topical ophthalmic instillation; type: in vivo, rabbit
Experimental: General disposition of topical ophthalmic 1-amino-3,5-dimethyladamantane hydrochloride (memantine) instillation was assessed by autoradiography. Briefly, albino and pigmented rabbits were dosed via topical ophthalmic instillation with a 0.74% (w/v) aqueous isotonic memantine solution having a pH of 7.4. After dosing, autoradiographic sections of the eye were acquired at 0.25, 0.5, 1, and 2 and 24 hours post dosing.

Rabbits = assay: Five day toxicology study, topical dosing twice a day; type: in vivo, rabbit; settings: CMC based versus borate buffered formulations
Experimental: This study was followed up by a five day toxicology study which included borate buffered formulations ranging from 0.1 to 0.75% (w/v) memantine, CMC based formulations ranging from 0.1 to 1.0% (w/v) memantine and the relevant placebos. All formulations were preserved with 20 ppm BAK.
The formulations were dosed with 35 μL drops topically to the cul-de-sac of rabbits twice a day for […]. The rabbits were evaluated by gross clinical observation of irritation, ranked as none, slight, mild, moderate or severe. The irritation score was a sum of lacrimation, chemosis, hyperemia and tolerability all scored from none to severe.

[5] = cited from earlier work
in vivo = settings: rabbit, po, 2 mg/kg
Experimental: Tissue concentrations of memantine were determined after oral and topical dosing. Rabbits were dosed topically with 35 μl of a 0.1% (w/v) aqueous solution of radiolabeled memantine twice a day to both eyes for 7 days (equivalent to approximately 0.07 mg/kg/day). This composition is detailed in Table 1 as Composition 2. Another subset of rabbits was dosed orally with 2 mg/kg radiolabeled memantine for seven days. At the end of the dosing period ocular tissue concentrations were quantified.

CC12CC3CC(C)(C1)CC(N)(C3)C2 [memantine, 1-amino-3,5-dimethyladamantane hydrochloride]
protein binding [1]: 31% | concentration at 7 days [2]: 100 ng/mL | peak retinal level (calculated) ([3]; oral 20 mg per day, assuming 31% protein binding and retina-choroid equal to free plasma concentration): 0.30 µM | mean plasma concentration ([3]; oral dose of 20 mg per day): 95 ng/mL | half-life in the posterior globe (qualitative) ([4]; albino and pigmented rabbits, topical 0.74% (w/v) solution): relatively long | binding to ocular melanin ([4]; pigmented tissues, autoradiography intensity): binds to the ocular melanin | presence in posterior ocular tissues ([4]; topical 0.74% (w/v) aqueous isotonic solution pH 7.4, albino and pigmented rabbits): present in the posterior sclera, choroid and/or retina | improvement of tolerability, factor (Rabbits): 5-8 | dose limiting side effects ([5]; oral delivery): dizziness, lightheadedness and slurred speech | other adverse events associated with CNS excitation ([5]; oral dosages of 5 to 30 mg/day): anxiety, dissociation, dry mouth, headache, nervousness, slurred speech, tiredness and weakness | concentration at 7 days (in vivo): 107 ng/mL
